Like-named read-outs stand apart in the source and are kept apart here.

Here are results for 4 compounds from publication PMC12410356 (International Journal for Parasitology: Drugs and Drug …, 2025).

The subject of data set [1] is E. multilocularis GL cells. Put plainly: Seahorse mito cell stress test, oxygen consumption rate. It counts as cell-based, Echinococcus multilocularis. The following applies: titration in GL cells. The protocol: To measure mitochondrial respiration in E. multilocularis GL cells, Seahorse “mito cell stress test” was performed according to the manual for Seahorse XFp Extracellular Flux Analyzer (Agilent Technologies, Basel, Switzerland) with some adaptations ([Gu et al., 2021]; [Rufener et al., 2018]). Seahorse XFp 8-well plates were hydrated and incubated together with Seahorse XF calibrant solution at 37 °C in a non-CO2 incubator overnight the day before the actual experiment. […] Oligomycin was used at a final concentration of 1.5 μM. […] The experiment was repeated three times independently with two technical replicates.

Data set [2] concerns E. multilocularis metacestode vesicles. The settings on record: PGI release after five days, cited from earlier work.
In data set [3] the test system is E. multilocularis GL cells. Also noted: method as in Stadelmann et al., 2016. The following applies: ref Stadelmann et al., 2016; cited from earlier work.
In data set [4] the test system is Reuber rat hepatoma (RH) cells. The following applies: cited from earlier work.
In data set [5] the test system is E. multilocularis metacestode vesicles. Put plainly: Phosphoglucose isomerase (PGI) release assay (damage-marker release) on metacestode vesicles. It counts as cell-based, Echinococcus multilocularis. The following applies: 10 μM; for PGI d5 (relative PGI release): 5 days; for PGI d12 (relative PGI release): 12 days.
Data set [6] has the same test system. Put plainly: Metacestode vesicle viability assay (ATP, CellTiter-Glo). It counts as cell-based, Echinococcus multilocularis. The settings on record: Echinococcus multilocularis, 288 h, 10 μM, 12 days, read-out: Viability d12 (relative viability). Here is the method:
Viability was assessed after 12 days using the same metacestode vesicles as for the PGI release assay. Triton X-100 was added to each well to a final concentration of 0.1 %. Subsequently the metacestode vesicles were broken mechanically and 50 μL of the supernatant was mixed with 50 μL of CellTiter-Glo® buffer (Promega, Dübendorf, Switzerland). Measurements were performed on a HIDEX Sense microplate reader.

In data set [7] the test system is E. multilocularis GL cells. Kind of data set: Germinal layer cell viability assay (CellTiter-Glo). It counts as cell-based, Echinococcus multilocularis. The protocol: The isolation of GL cells was conducted according to ([Kaethner et al., 2023]). Briefly, conditioned DMEM (cDMEM) was prepared prior to isolation. For the preparation of cDMEM, 1 × 10^6 RH cells and 10 × 10^6 RH cells incubated in DMEM supplemented with 10 % FBS, penicillin (100 U/mL), streptomycin (100 μg/mL) and tetracycline (5 μg/mL) for six or four days, respectively, at 37 °C under a humid, 5 % CO2 atmosphere. The supernatant of each was mixed 1:1 and sterile filtrated, resulting in cDMEM. Metacestode vesicles of at least 6 months of age were washed with PBS, incubated in distilled H2O for 2.5 min and subsequently mechanically disrupted. The resulting pellet was resuspended in 7 vol of pre-warmed 0.05 % Trypsin/0.02 % EDTA and incubated at 37 °C for 30 min. GL cells were extracted from the laminated layer by vigorous shaking followed by filtration through a 30 μm mesh (Sefar AG, Heiden, Switzerland) and separated from calcareous corpuscles by short centrifugation at 50×g for 30 s at RT. The isolated cells were centrifuged for 10 min at 600×g and RT and the pellet was resuspended in cDMEM. The cell suspension was diluted 1:100 in PBS to measure the OD600. An OD600 value of 0.1 of this dilution was defined as one arbitrary unit (AU) per μL of the undiluted cell suspension corresponding to 0.97 ± 0.11 μg of total protein for the GL cells as measured via Pierce™ bicinchoninic acid (BCA) Protein Assay Kit according to the manufacturer's protocol (Fisher Scientific AG, Reinach, Switzerland). 1′000 AU per 5 mL of cDMEM were cultured at 37 °C overnight under a humid nitrogen atmosphere. The next day, 2′000 AU of GL cells were combined and further cultured for 3 h at 37 °C under a humid nitrogen atmosphere before they were used for further experiments.
To assess effects of compounds on the cell viability of isolated E. multilocularis GL cells, the protocol was applied as previously described ([Kaethner et al., 2023]). In short, 15 AU of GL cells were distributed into each well of a black 384-well plate. Compounds dissolved in DMSO (alexidine, carbendazim, ESI-09, MMV1581545 and oxfendazole) were added to final concentrations ranging from 80 to 0.31 μM (1:2 serial dilution) and the cells were cultured for 5 days at 37 °C under a humid, microaerobic atmosphere (85 % N2, 10 % CO2, 5 % O2). DMSO with the respective concentration was used as a solvent control. Viability was measured using the CellTiter-Glo® kit. Luminescence was measured using a HIDEX Sense microplate reader. Measurements were done in quadruplicates and represented as relative viability of the DMSO controls. IC50 values were calculated in R applying the five parameter logistic model for three independent experiments ([Ritler et al., 2020]).
For orientation: Cellular ATP, detected with luciferase, serves as a proxy for viable cell number.

Data set [8] relates to Reuber rat hepatoma (RH) cells. Put plainly: Mammalian cell toxicity, resazurin assay. It counts as cell-based. The settings on record: for IC50: Rattus norvegicus, 120 h, 5 days incubation, mean ± SD. The protocol:
Mammalian cell toxicity on RH cells was measured as described in [Rufener et al. (2018)] with few alterations. Briefly, confluent (50′000 cells/well) and pre-confluent (5′000 cells/well) were seeded into 96-well plates in DMEM supplemented with 10 % FBS, penicillin (100 U/mL), streptomycin (100 μg/mL) and tetracycline (5 μg/mL) and incubated at 37 °C under a humid, 5 % CO2 atmosphere for 24 h and 5 h respectively. Alexidine, ESI-09 and MMV1581545 were added to final concentrations ranging from 120 to 0.49 μM (1:3 serial dilution) to each well and then cells were incubated at 37 °C under a humid, 5 % CO2 atmosphere for 5 days. To measure viability, the medium was removed, 180 μL of PBS was added to the cells and resazurin was added to each well to a final concentration of 10 mg/L. The cells were then allowed to process the resazurin at RT for 1 h. Fluorescence was measured on a HIDEX Sense microplate reader. Measurements were performed in triplicates and IC50 values were calculated in R using the three parameter Weibull type 1 model for three independent experiments ([Ritler et al., 2020]).
(Alamar Blue is a resazurin reagent that responds to reducing activity.)

A further data set relates to HUVEC cell line. Details: method as in Mamouei et al., 2018. The settings on record: at 15 μM; ref Mamouei et al., 2018; cited from earlier work.
[9] abbreviates: confirmation screen, triplicates, mean.
[10] abbreviates: overview screen, singlets, relative to 0.1 % Triton X-100, DMSO subtracted.

As for `N#CC(C#N)=NNc1ccc(OC(F)(F)F)cc1` [FCCP], the “optimal (maximal) uncoupling concentration” value in data set [1] came out at 0.4 µM.
As a reminder, the IC50 is the concentration at which inhibition is half-maximal. For the compound `O=C(Nc1cccc(C(F)(F)F)c1)c1cc(Cl)ccc1O` [MMV665807], the IC50 was 1.2 ± 1.6 µM in data set [2] (ref Stadelmann et al., 2016); 0.6 ± 0.37 µM in data set [3]; 20.5 ± 0.13 µM in data set [4] (confluent, ref Stadelmann et al., 2016, read-out: IC50 confluent RH cells); 4.8 ± 0.59 µM in [4] (pre-confluent, ref Stadelmann et al., 2016, read-out: IC50 pre-confluent RH cells).
What is called viability is a read-out of living cells in per cent, often relative to untreated cells. Regarding `CCCCC(CC)CNC(=N)NC(=N)NCCCCCCNC(=N)NC(=N)NCC(CC)CCCC` (stereo not drawn) [alexidine, reference compound], the “PGI d5 (relative PGI release)” value in data set [5] (setting [9]) worked out at 32.36%; in data set [5] (setting [10]) it was 68.8052%. Further, the “PGI d12 (relative PGI release)” value worked out at 76.1 ± 3.2% in data set [5] (setting [9]); 76.16% in [5] (confirmation screen, triplicates, mean, listed as MMV396785); 92.491% in [5] (setting [10]). In addition, the viability at 10 µM in data set [6] (setting [9]) stood at 34.4 ± 0.9%; in data set [6] (overview screen, singlets, relative to DMSO control), 4.93%. Moreover, the “effect on GL cell viability (in words)” value in data set [7] (80 to 0.31 μM, 5 days) was “highly effective”. Besides, the IC50 in data set [7] (Echinococcus multilocularis, 120 h, 5 days incubation, microaerobic, mean ± SD of three independent experiments) stood at 10.7 ± 1.13 µM; in [8] (confluent, read-out: IC50 confluent RH cells), 5.97 ± 4.89 µM; in [8] (pre-confluent, read-out: IC50 pre-confluent RH cells) it was 2.8 ± 1.33 µM. In addition, in data set [8] (RH cells counter-screen), the “toxicity against mammalian cell line (in words)” value was “highly toxic”. In the data set on HUVEC cell line, the “toxicity in the HUVEC cell line (in words)” value is listed as “severe toxicity”.
On to `CC(C)(C)[C@H]1CC[C@H](CC2=C(O)C(=O)c3ccccc3C2=O)CC1` [buparvaquone], for which the IC50 in data set [2] (ref Rufener et al., 2018) is 2.87 ± 1.45 µM; in [4] (confluent, ref Rufener et al., 2018, read-out: IC50 confluent RH cells), 17.4 ± 2.09 µM; in data set [4] (pre-confluent, ref Rufener et al., 2018, read-out: IC50 pre-confluent RH cells), 8.47 ± 3.89 µM.
